The values that follow come from US7888042B2, “Methods for identifying insulin mimetics” (Ohio University, priority 2005, dated 2011).

Several values for one entry are separate records, joined by “and”; a condition that tells them apart may be missing. Equal values may be shown once.

For one test, the system named is ob/ob mice. The experiment in a line: Blood glucose in ob/ob mice, ip injection. It counts as in vivo. Particulars: ip 20 mg/kg on day 0 and day 4, P<0.001. As to the method:
Either 6-8 week old male db/db mice or 8-12 week old male ob/ob mice were treated with aqueous solutions of α-PGG by either oral delivery (˜10 μL, A & B) or ip injection (˜50 μL, C, & D). (n=8-10, mean±SD, one-way ANOVA). α-PGG (●); vehicle (∘). α-PGG (20 mg/kg) was orally delivered without glucose to fasting db/db mice (A *, P<0.02; **, P<0.01; ***, P<0.001) or with glucose (0.4 g/kg body weight) to fasting ob/ob mice (B, glucose tolerance test). α-PGG (20 mg/kg) was ip injected into ob/ob mice on day 0 and day 4 (C). A single ip injection (20 mg/kg) of α-PGG was administered to ob/ob mice (D). Glucose (A, B, C) or insulin (D) was determined from sera or plasma isolated from tail vein blood. Animal studies. Genetically diabetic db/db mice or obese ob/ob mice were purchased from Jackson Lab. Male mice of 2-3 months of age were used. Unless otherwise stated, 10 mice (N=10) were used per group. α-PGG was either orally administered or intraperitoneally (ip) injected in the form of an aqueous solution at 20 mg/kg body weight with a 1-cc sterile plastic syringe. At different times after the α-PGG administration, blood or plasma was collected from the tail vein for measurement of glucose and insulin concentrations using commercial kits. Vehicle (aqueous solution) treated mice were used as controls and were statistically compared with the α-PGG treated mice. […]

In test [1] the target is T1, pure recombinant glycosylated IR (Homo sapiens, UniProt P06213).
T1 construct: purchased R&D Systems, Inc
T1 sequence (P06213 28-746 isoform P06213-2 limits assumed): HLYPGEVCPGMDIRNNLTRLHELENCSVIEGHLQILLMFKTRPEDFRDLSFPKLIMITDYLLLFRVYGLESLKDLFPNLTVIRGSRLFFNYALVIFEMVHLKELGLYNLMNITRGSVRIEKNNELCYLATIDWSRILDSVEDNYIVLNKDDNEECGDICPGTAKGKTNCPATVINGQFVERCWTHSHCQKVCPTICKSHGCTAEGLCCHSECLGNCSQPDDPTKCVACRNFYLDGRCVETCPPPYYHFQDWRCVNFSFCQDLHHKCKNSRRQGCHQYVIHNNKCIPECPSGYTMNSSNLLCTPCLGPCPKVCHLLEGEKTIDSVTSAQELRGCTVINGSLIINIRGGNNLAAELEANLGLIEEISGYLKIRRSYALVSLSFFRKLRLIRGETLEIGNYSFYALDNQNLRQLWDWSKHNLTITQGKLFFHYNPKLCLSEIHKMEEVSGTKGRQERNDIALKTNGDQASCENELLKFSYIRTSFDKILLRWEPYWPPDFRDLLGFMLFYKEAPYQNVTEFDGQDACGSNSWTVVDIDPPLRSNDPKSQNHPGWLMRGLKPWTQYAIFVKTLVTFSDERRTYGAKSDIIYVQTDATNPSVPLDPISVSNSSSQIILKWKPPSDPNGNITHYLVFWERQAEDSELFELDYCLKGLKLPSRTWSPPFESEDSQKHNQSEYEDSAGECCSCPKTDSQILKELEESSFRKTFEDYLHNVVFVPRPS
T1 sequence (P06213 763-956 limits assumed): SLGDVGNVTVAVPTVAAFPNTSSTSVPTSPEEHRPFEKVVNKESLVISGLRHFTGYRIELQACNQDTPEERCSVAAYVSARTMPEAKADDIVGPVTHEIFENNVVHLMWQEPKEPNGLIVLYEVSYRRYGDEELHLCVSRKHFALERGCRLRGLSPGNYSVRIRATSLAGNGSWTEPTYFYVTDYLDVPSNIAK
Nature of the test: Surface plasmon resonance binding to IR. The settings on record: SPR, IR bound to NTA chip; read-out: apparent binding affinity (Kd) to IR. The protocol: (A) α-PGG binds to IR as measured by a SPR (28). Increasing concentrations of α-PGG was injected into the system to interact with the pure IR attached to the gold surface of the biosensor chip. The binding, represented in arbitrary response units, was automatically plotted against α-PGG concentrations to generate the binding curve. (B) Insulin binding to IR in the absence or presence of α-PGG. Increasing amounts of ^125I-labeled insulin were added to WGA-coated wells containing pre-bound IR isolated from CHO-IR cells in the absence of α-PGG or in the presence of 30 μM or 50 μM of α-PGG. After overnight incubation, removal of excessive ligands, and washing, the bound radioactive insulin was measured. (C) Insulin displacement by α-PGG. Fixed amounts of radioactive insulin (1 nM) were added to each of the WGA-coated wells pre-bound with IR. Increasing amounts of α-PGG were added to the wells to displace the ^125I-labeled insulin. […]
Insulin receptor binding studies. […] After sensograms of α-PGG-IR binding at different concentrations were recorded, the binding affinity was analyzed using BIAevaluation software. […] The bound ligand was detached (eluted) from the receptor with 2×200 μL 0.2M Glycine pH 2.8, and measured for its radioactivity using a Beckman Coulter LS 6400 Multi-Purpose Scintillation Counter. […] The receptor binding results were analyzed with the software GraphPad Prism.

Another test relates to db/db mice. Nature of the test: Blood glucose in fasting db/db mice, oral dose. It is filed as in vivo. As to the method:
Either 6-8 week old male db/db mice or 8-12 week old male ob/ob mice were treated with aqueous solutions of α-PGG by either oral delivery (˜10 μL, A & B) or ip injection (˜50 μL, C, & D). (n=8-10, mean±SD, one-way ANOVA). α-PGG (●); vehicle (∘). α-PGG (20 mg/kg) was orally delivered without glucose to fasting db/db mice (A *, P<0.02; **, P<0.01; ***, P<0.001) or with glucose (0.4 g/kg body weight) to fasting ob/ob mice (B, glucose tolerance test). α-PGG (20 mg/kg) was ip injected into ob/ob mice on day 0 and day 4 (C). A single ip injection (20 mg/kg) of α-PGG was administered to ob/ob mice (D). Glucose (A, B, C) or insulin (D) was determined from sera or plasma isolated from tail vein blood. Animal studies. Genetically diabetic db/db mice or obese ob/ob mice were purchased from Jackson Lab. Male mice of 2-3 months of age were used. Unless otherwise stated, 10 mice (N=10) were used per group. α-PGG was either orally administered or intraperitoneally (ip) injected in the form of an aqueous solution at 20 mg/kg body weight with a 1-cc sterile plastic syringe. At different times after the α-PGG administration, blood or plasma was collected from the tail vein for measurement of glucose and insulin concentrations using commercial kits. Vehicle (aqueous solution) treated mice were used as controls and were statistically compared with the α-PGG treated mice. All animal studies were conducted in accord with the Ohio University guidelines for the use and care of laboratory animals.

As to `O=C(OC[C@H]1O[C@H](OC(=O)c2cc(O)c(O)c(O)c2)[C@H](OC(=O)c2cc(O)c(O)c(O)c2)[C@@H](OC(=O)c2cc(O)c(O)c(O)c2)[C@@H]1OC(=O)c1cc(O)c(O)c(O)c1)c1cc(O)c(O)c(O)c1` [α-PGG, alpha 1,2,3,4,6-penta-O-galloyl-D-Glucopyranose], the blood glucose levels result is “significantly and consistently lowered” with ob/ob mice; “significantly decreased” with db/db mice (single oral dose 20 mg/kg). In test [1], the Kd is 43 µM and ~43 µM. Further, in the test with db/db mice (oral 20 mg/kg), the “duration of blood glucose difference” value is listed as “at least 5 hours”. In the test with db/db mice (oral 20 mg/kg, 4 to 6 hours after treatment), the “glucose level lower than control group” value is given as “about 20%”.
